The subject of experiment [1] is HCT-116 (human colon) cells. The experiment is described as follows: Cell-Titer Glo Cell Growth Inhibition Assay. It counts as cell-based. To be noted: HCT-116 cells, 72 h incubation, CellTiter-Glo, read-out: HCT116 IC50. The method, then: A549-L (human lung), Colo 205 (human colon), HCT-116 (human colon), HT29 (human colon), MX-1 (human breast), SKOV3 (human ovary) and P388 (murine leukemia) cell lines were cultured in RPM11640 containing 10% fetal bovine serum at 37° C. in a 5% CO2 incubator. Cell lines were split into T75 flasks (Falcon #353136) two to three days prior to assay set up at density which yields approximately 70-80% confluency at time of harvest for assay. Cells were harvested using 0.25% trypsin with EDTA (Glibco/Invitrogen #25200-056), Cell counts were performed on cell suspensions using Trypan Blue exclusion staining, cells were then plated in 105 µL of culture media per well at the following densities in 96 well Costar #3916 black flat bottom plates: A549-L 500 cells/well, Colo205 500 cells/well, HCT-116 500 cells/well, HT29 500 cells/well, MX-1 500 cells/well, SKOV3 500 cells/well and P388 250 cells/well. All plates were placed at 5% CO2 37° C. overnight and then test compounds were added the following day. One plate of each cell type was treated with CellTiter-Glo (Promega #G7573) for a day 0 proliferation measurement and read as described below. The test compounds were prepared in clear U bottom polypropylene 96 well plates (Falcon #35-1190 with consecutive two fold dilutions. 9 uL of these dilutions was added into each well of the cell plates. The final concentration of DMSO in all wells was 0.15%. Cells were incubated at 37° C., 5% CO2 for 72 h. Following 72 h of incubation with compounds each plate was developed and read. CellTiter-Glo reagent was added to assay plates using a volume equivalent to the cell culture volume in the wells. Plates were shaken for approximately 2 min and incubated at rt for approximately 15 min and the chemiluminescent signal was read on the Victor V or Envison 2100 reader. […] Concentration of compound that inhibited 50% of cell growth (IC50) was analyzed by 4 or 6 parameter fit of data using XLfit, value of no cell addition was substracted from all samples for background.
(ATP-based viability assays read luminescence as a measure of living cells.)

For another experiment, the target named is T1, PLK1 kinase domain (Homo sapiens, UniProt P53350).
T1 construct: made in house; host or cells: baculovirus infected T. ni cells
T1 sequence (P53350 21-346): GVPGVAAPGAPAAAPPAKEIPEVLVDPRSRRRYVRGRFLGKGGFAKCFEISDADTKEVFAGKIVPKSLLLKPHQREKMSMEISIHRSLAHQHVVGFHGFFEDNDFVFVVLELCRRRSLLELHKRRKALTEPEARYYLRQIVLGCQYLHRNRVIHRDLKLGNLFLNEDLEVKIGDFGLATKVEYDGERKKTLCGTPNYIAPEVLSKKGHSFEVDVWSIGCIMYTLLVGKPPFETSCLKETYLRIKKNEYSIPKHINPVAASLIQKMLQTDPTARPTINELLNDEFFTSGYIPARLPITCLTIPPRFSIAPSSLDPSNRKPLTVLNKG
The experiment is described as follows: Assay for Inhibition of PLK1 (SPA, 33P-ATP). It counts as biochemical. To be noted: 2 nM PLK1 kinase domain, 1 μM ATP, 22° C.; read-out: PLK1 pIC50 (converted). The method, then: A. Preparation of 6× N-Terminal His-Tagged PLK Kinase Domain
All procedures were performed at 4° C. Cells were lysed in 50 mM HEPES, 200 mM NaCl, 50 mM imidazole, 5% glycerol; pH 7.5. The homogenate was centrifuged at 14K rpm in a SLA-1500 rotor for 1 hr and the supernatant filtered through a 1.2 micron filter. The supernatant was loaded onto a Nickel chelating Sepharose (Amersham Pharmacia) column and washed with lysis buffer. Protein was eluted using 20%, 30% and 100% buffer B steps where buffer B was 50 mM HEPES, 200 mM NaCl, 300 mM imidazole, 5% glycerol; pH 7.5. Fractions containing PLK were determined by SDS-PAGE. Fractions containing PLK were diluted five-fold with 50 mM HEPES, 1 mM DTT, 5% glycerol; pH 7.5, then loaded on an SP Sepharose (Amersham Pharmacia) column. After washing the column with 50 mM HEPES, 1 mM DTT, 5% glycerol; pH 7.5, PLK was step eluted with 50 mM HEPES, 1 mM DTT, 500 mM NaCl; 5% glycerol; pH 7.5. PLK was concentrated using a 10 kDa molecular weight cutoff membrane and then loaded onto a Superdex 200 gel filtration (Amersham Pharmacia) column equilibrated in 25 mM HEPES, 1 mM DTT, 500 mM NaCl, 5% glycerol; pH 7.5. Fractions containing PLK were determined by SDS-PAGE. PLK was pooled, aliquoted and stored at −80° C. Samples were quality controlled using mass spectrometry, N-terminal sequencing and amino acid analysis.
B. Enzyme Activity +/− Inhibitors was Determined as Follows:
All measurements were obtained under conditions where signal production increased linearly with time and enzyme. Test compounds were added to white 384-well assay plates (0.1 μL for 10 μL and some 20 μL assays, 1 μL for some 20 μL assays) at variable known concentrations in 100% DMSO. DMSO (1-5% final, as appropriate) and EDTA (65 mM in reaction) were used as controls.
Reaction Mix (10 or 20 μL) was quickly added to each well immediately following addition of enzyme via automated liquid handlers and incubated 1-1.5 h at 22° C. The 20 μL enzymatic reactions were stopped with 50 μL of stop mix (50 mM EDTA, 4.0 mg/mL Streptavidin SPA beads in Standard Dulbecco's PBS (without Mg^2+ and Ca^2+), 50 μM ATP) per well. The 10 μL reactions were stopped with 10 μL of stop mix (50 mM EDTA, 3.0 mg/mL Streptavidin-coupled SPA Imaging Beads (“LeadSeeker”) in Standard Dulbecco's PBS (without Mg^2+ and Ca^2+), 50 μM ATP) per well. Plates were sealed with clear plastic seals, spun at 500×g for 1 min or settled overnight, and counted in Packard TopCount for 30 seconds/well (regular SPA) or imaged using a Viewlux imager (LeadSeeker SPA). Signal above background (EDTA controls) was converted to percent inhibition relative to that obtained in control (DMSO-only) wells.

The structures appear in SMILES notation.

Consider `C[C@@H](Oc1cc(-n2cnc3cc(-c4ccnc(NCCN(C)C)n4)ccc32)sc1C(N)=O)c1ccccc1C(F)(F)F` [Example 16, 5-[5-(2-{[2-(Dimethylamino)ethyl]amino}pyrimidin-4-yl)-1H-benzimidazol-1-yl]-3-({(1R)-1-[2-(trifluoromethyl)phenyl]ethyl}oxy)thiophene-2-carboxamide], for which the IC50 is under 500 nM in experiment [1] and under 100 nM at PLK1 kinase domain.

`C[C@@H](Oc1cc(-n2cnc3cc(-c4ccnc(NCCCN5CCN(C)CC5)n4)ccc32)sc1C(N)=O)c1ccccc1Cl` [Example 17, 3-{[(1R)-1-(2-chlorophenyl)ethyl]oxy}-5-[5-(2-{[3-(4-methyl-1-piperazinyl)propyl]amino}-4-pyrimidinyl)-1H-benzimidazol-1-yl]-2-thiophenecarboxamide]: the IC50 in experiment [1] was under 500 nM; at PLK1 kinase domain it was under 100 nM.

Take `C[C@@H](Oc1cc(-n2cnc3cc(-c4cnc(NCCCN(C)C)nc4)ccc32)sc1C(N)=O)c1ccccc1Cl` [Example 18, 3-{[(1R)-1-(2-Chlorophenyl)ethyl]oxy}-5-[5-(2-{[3-(dimethylamino)propyl]amino}-5-pyrimidinyl)-1H-benzimidazol-1-yl]-2-thiophenecarboxamide]: the results for the IC50 (in experiment [1]; on PLK1 kinase domain) were under 500 nM and under 100 nM, respectively.

With `C[C@@H](Oc1cc(-n2cnc3cc(-c4cnc(NCCN(C)C)nc4)ccc32)sc1C(N)=O)c1ccccc1Cl` [Example 19, 3-{[(1R)-1-(2-Chlorophenyl)ethyl]oxy}-5-[5-(2-{[2-(dimethylamino)ethyl]amino}-5-pyrimidinyl)-1H-benzimidazol-1-yl]-2-thiophenecarboxamide], the values for the IC50 (in experiment [1]; at PLK1 kinase domain) were under 500 nM and under 100 nM, respectively.

On to `C[C@@H](Oc1cc(-n2cnc3cc(-c4cnc(NCCCN5CCN(C)CC5)nc4)ccc32)sc1C(N)=O)c1ccccc1Cl` [Example 20, 3-{[(1R)-1-(2-Chlorophenyl)ethyl]oxy}-5-[5-(2-{[3-(4-methyl-1-piperazinyl)propyl]amino}-5-pyrimidinyl)-1H-benzimidazol-1-yl]-2-thiophenecarboxamide], for which the IC50 is under 500 nM in experiment [1] and under 100 nM on PLK1 kinase domain.

As for `C[C@@H](Oc1cc(-n2cnc3cc(-c4cnc(N(C)CCN(C)C)nc4)ccc32)sc1C(N)=O)c1ccccc1Cl` [Example 21, 3-{[(1R)-1-(2-chlorophenyl)ethyl]oxy}-5-(5-{2-[[2-(dimethylamino)ethyl](methyl)amino]-5-pyrimidinyl}-1H-benzimidazol-1-yl)-2-thiophenecarboxamide], the IC50 is under 500 nM in experiment [1] and under 100 nM on PLK1 kinase domain.

For the molecule `C[C@@H](Oc1cc(-n2cnc3cc(-c4cnc(NCCN5CCOCC5)nc4)ccc32)sc1C(N)=O)c1ccccc1Cl` [Example 22, 3-{[(1R)-1-(2-chlorophenyl)ethyl]oxy}-5-[5-(2-{[2-(4-morpholinyl)ethyl]amino}-5-pyrimidinyl)-1H-benzimidazol-1-yl]-2-thiophenecarboxamide], the figures for the IC50 (in experiment [1]; on PLK1 kinase domain) were under 500 nM and under 100 nM, respectively.

Consider `C[C@@H](Oc1cc(-n2cnc3cc(-c4cccc(OCCN5CCCC5)c4)ccc32)sc1C(N)=O)c1ccccc1Cl` [Example 23, 3-{[(1R)-1-(2-chlorophenyl)ethyl]oxy}-5-[5-(3-{[2-(1-Pyrrolidinyl)ethyl]oxy}phenyl)-1H-benzimidazol-1-yl]-2-thiophenecarboxamide], for which the IC50 is under 500 nM in experiment [1] and under 100 nM on PLK1 kinase domain.

Regarding `C[C@@H](Oc1cc(-n2cnc3cc(-c4ccc(NC(=O)CN5CCOCC5)cc4)ccc32)sc1C(N)=O)c1ccccc1Cl` [Example 24, 3-{[(1R)-1-(2-chlorophenyl)ethyl]oxy}-5-(5-[4-[(4-morpholinylacetyl)amino]phenyl]-1H-benzimidazol-1-yl)-2-thiophenecarboxamide], the IC50 is under 500 nM in experiment [1] and under 100 nM at PLK1 kinase domain.

As for `C[C@@H](Oc1cc(-n2cnc3cc(-c4ccc(NCCN(C)C)nc4)ccc32)sc1C(N)=O)c1ccccc1C(F)(F)F` [Example 25, 5-[5-(6-{[2-(dimethylamino)ethyl]amino}-3-pyridinyl)-1H-benzimidazol-1-yl]-3-({(1R)-1-[2-(trifluoromethyl)phenyl]ethyl}oxy)-2-thiophenecarboxamide], the IC50 in experiment [1] is under 500 nM; on PLK1 kinase domain, under 100 nM.

On to `CNCCNc1ccc(-c2ccc3c(c2)ncn3-c2cc(O[C@H](C)c3ccccc3C(F)(F)F)c(C(N)=O)s2)cn1` [Example 26, 5-[5-(6-{[2-(methylamino)ethyl]amino}-3-pyridinyl)-1H-benzimidazol-1-yl]-3-({(1R)-1-[2-(trifluoromethyl)phenyl]ethyl}oxy)-2-thiophenecarboxamide], for which the IC50 in experiment [1] is under 500 nM; on PLK1 kinase domain, under 100 nM.

For `C[C@@H](Oc1cc(-n2cnc3cc(-c4ccc(N(C)CCN(C)C)nc4)ccc32)sc1C(N)=O)c1ccccc1Cl` [Example 27, 3-{[(1R)-1-(2-chlorophenyl)ethyl]oxy}-5-(5-[6-[[2-(dimethylamino)ethyl](methyl)amino]-3-pyridinyl]-1H-benzimidazol-1-yl)-2-thiophenecarboxamide], the IC50 in experiment [1] was under 500 nM; at PLK1 kinase domain it was under 100 nM.

`C[C@@H](Oc1cc(-n2cnc3cc(-c4ccc(NCCO)nc4)ccc32)sc1C(N)=O)c1ccccc1Cl` [Example 28, 3-{[(1R)-1-(2-chlorophenyl)ethyl]oxy}-5-(5-[6-[(2-hydroxyethyl)amino]-3-pyridinyl]-1H-benzimidazol-1-yl)-2-thiophenecarboxamide]: the IC50 in experiment [1] was under 500 nM; at PLK1 kinase domain, under 100 nM.

`C[C@@H](Oc1cc(-n2cnc3cc(-c4ccc(NCCCN(C)C)nc4)ccc32)sc1C(N)=O)c1ccccc1Cl` [Example 29, 3-{[(1R)-1-(2-chlorophenyl)ethyl]oxy}-5-[5-(6-{[3-(dimethylamino)propyl]amino}-3-pyridinyl)-1H-benzimidazol-1-yl]-2-thiophenecarboxamide]: the IC50 in experiment [1] was under 500 nM; at PLK1 kinase domain, under 100 nM.

Consider `C[C@@H](Oc1cc(-n2cnc3cc(-c4ccc(NCCN(C)C)nc4)ccc32)sc1C(N)=O)c1ccccc1Cl` [Example 30, 3-{[(1R)-1-(2-chlorophenyl)ethyl]oxy}-5-[5-(6-{[2-(dimethylamino)ethyl]amino}-3-pyridinyl)-1H-benzimidazol-1-yl]-2-thiophenecarboxamide], for which the IC50 in experiment [1] was under 500 nM; at PLK1 kinase domain, under 100 nM.

For the origin of these results see patent US20100056525A1, “5- AND 6- SUBSTITUTED BENZIMIDAZOLE THIOPHENE COMPOUNDS” (priority 2006, published 2010).
